{"source": "patent US7238778B2", "about": "“Crystallized glucocorticoid receptor ligand binding domain polypeptide and screening methods employing same” (SmithKline Beecham Corporation, priority 2001, dated 2007)", "key": {"[1]": {"molecular_target": "T1, GST-GR LBD (F602S) 521–777 (Homo sapiens, UniProt P04150, F602S)", "T1 construct": "GR-LBD(521–777) F602S; made in house; host or cells: E. coli BL21(DE3); TIF2 peptide made by chemical synthesis", "T1 sequence (P04150 521-777 F602S)": "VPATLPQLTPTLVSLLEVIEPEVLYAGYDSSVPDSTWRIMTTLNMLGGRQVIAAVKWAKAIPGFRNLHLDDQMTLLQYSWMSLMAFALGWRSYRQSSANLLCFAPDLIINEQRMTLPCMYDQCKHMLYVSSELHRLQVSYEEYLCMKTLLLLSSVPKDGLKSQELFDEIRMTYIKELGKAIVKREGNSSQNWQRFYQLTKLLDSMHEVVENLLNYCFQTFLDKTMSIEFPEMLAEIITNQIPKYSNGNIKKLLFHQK", "assay": "Surface plasmon resonance (Biacore) binding of GST-GR LBD to immobilized TIF2 LXXLL peptide", "protocol": "Each point is the average of two determinations.\nFIG. 2B was generated using Biacore techniques. Biacore relies on changes in the refractive index at the surface layer upon binding of a ligand to a protein immobilized on the layer. In this system, a collection of small ligands is injected sequentially in a 2–5 microliter cell, wherein the protein is immobilized within the cell. Binding is detected by surface plasmon resonance (SPR) by recording laser light refracting from the surface. […] The purified protein is then used in the assay without further preparation. A synthetic peptide with an amino-terminal biotin is coupled to a sensor chip immobilized with streptavidin. The chip thus prepared is then exposed to the potential ligand via the delivery system incorporated in the instruments sold by Biacore (Uppsala, Sweden) to pipet the ligands in a sequential manner (autosampler). The SPR signal on the chip is recorded and changes in the refractive index indicate an interaction between the immobilized target and the ligand. Analysis of the signal kinetics of on rate and off rate allows the discrimination between non-specific and specific interaction."}, "[2]": {"molecular_target": "GR LBD (F602S) 521–777 (Homo sapiens, UniProt P04150, F602S)", "sequence (P04150 with tags, fused parts or gaps F602S)": "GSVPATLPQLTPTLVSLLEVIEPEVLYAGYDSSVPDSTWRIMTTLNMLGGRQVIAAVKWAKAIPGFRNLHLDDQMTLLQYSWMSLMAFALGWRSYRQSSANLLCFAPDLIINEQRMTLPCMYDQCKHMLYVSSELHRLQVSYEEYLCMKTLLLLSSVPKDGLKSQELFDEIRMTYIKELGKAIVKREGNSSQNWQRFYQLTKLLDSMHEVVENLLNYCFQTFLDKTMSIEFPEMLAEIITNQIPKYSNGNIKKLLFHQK", "conditions": "GST-GR fusion protein and cleaved GR LBD alone; 10 nM fluorescein dexamethasone, competed with 100 uM unlabeled dexamethasone (FIG. 2A)", "procedure": "FIG. 2A is a graph depicting the binding of 10 nM fluorescein dexamethasone to varied concentrations of GST-GR LBD (F602S) 521–777 (circles), GR LBD (F602S) 521–777 (triangles) and GR LBD (F602S) 521–777 in the presence of 100 uM unlabeled dexamethasone (squares) as measured by fluorescence polarization.\nAll experiments were conducted with buffer containing 10 mM HEPES pH 7.4, 0.15 M NaCl, 3 mM EDTA, 0.005% polysorbate-20 and 5 mM DTT. For activity determinations, 10 nM of fluorescein dexamethasone (Molecular Probes, Eugene, Ore.) was titrated with increasing concentrations of the glucocorticoid receptor in black 96-well plates (CoStar, Cambridge, Mass.). The fluorescence polarization values for each concentration of receptor were determined using a BMG PolarStar Galaxy fluorescence plate reader (BMG Labtechnologies GmbH, Offenburg, Germany) with 485 nm excitation and 520 nm emission filters. Binding isotherms were constructed and apparent EC50 values were determined by non-linear least squares fit of the data to an equation for a simple 1:1 interaction. […] For stability studies, the fluorescent polarization of 10 nM fluorescein dexamethasone with 1 μM GST-GR LBD 521–777 (F602S) is read at specific time intervals in the presence or absence of 25 uM of a peptide derived from the coactivator TIF2."}, "[3]": {"molecular_target": "T2, GST-GR LBD 521–777 (F602S) (Homo sapiens, UniProt P04150, F602S)", "T2 construct": "GR-LBD(521–777) F602S; made in house; host or cells: E. coli BL21(DE3)", "T2 sequence (P04150 521-777 F602S)": "T1 sequence (P04150 521-777 F602S)", "assay": "Stability of GR dexamethasone binding activity over time by fluorescence polarization", "conditions": "25 uM peptide, 1 μM GST-GR LBD, 10 nM fluorescein dexamethasone (FIG. 2C)", "protocol": "FIG. 2C is a graph depicting that TIF2 coactivator peptide enhances stability of GR dexamethasone binding activity. The effect of 25 uM coactivator peptide TIF2 732–756 (diamonds) or no peptide (squares) on the binding of GST-GR LBD (F602S) 521–777 to 10 nM fluorescein dexamethasone with time is determined by fluorescence polarization."}}, "data": [{"substance": "(11β, 16α)-9-fluoro-11β,17,21-trihydroxy-16α-methylpregna-1-4-diene-3,20-dione [dexamethasone]", "values": [{"measurement": "effect of ligand on binding of the GST-GR fusion protein to the TIF2 peptide", "setting": "[1]; five-fold excess of compound over GST-GR LBD (F602S) (FIG. 2B)", "result": "enhanced"}, {"measurement": "binding of dexamethasone to GR", "setting": "[2]", "result": "saturable and competable"}]}, {"substance": "QEPVSPKKKENALLRYLLDKDDTKD [TIF2 peptide]", "values": [{"measurement": "affinity of the TIF2 coactivator peptide for the GST-GR fusion protein", "setting": "[1]; immobilized TIF2 732–756 peptide (FIG. 2B)", "result": "submicromolar"}, {"measurement": "effect on the dexamethasone binding activity of the GST-GR fusion protein with time", "setting": "[3]", "result": "stabilizes"}]}]}
